Test results: patent publication US20240083890A1, “MACROCYCLIC BRANCHED 3-FLUORO-BUT-3-ENAMIDES AS INHIBITORS OF MCL-1” (JANSSEN PHARMACEUTICA NV, priority 2020, published 2024)

How the values were obtained:
Mcl-1 = Mcl-1 (Homo sapiens (Human), UniProt Q07820); experiment: Terbium labeled Mcl-1 HTRF binding assay, displacement of Cy5-labeled BIM BH3 peptide; settings: Ki=IC50/(1+[L]/Kd), [L]=8 nM, Kd=10 nM; 25 pM Tb-Mcl-1, 8 nM Cy5 Bim peptide, 60 min; read-out: Tb-MCL1 Ki
Protocol: Terbium labeled Myeloid Cell Leukemia 1(Mcl-1) homogeneous time-resolved fluorescence (HTRF) binding assay utilizing the BIM BH3 peptide (H2N—(C/Cy5Mal) WIAQELRRIGDEFN-OH) as the binding partner for Mcl-1.
This assay evaluated inhibition of the BH3 domain: Mcl-1 interaction by measuring the displacement of Cy5-labeled BIM BH3 peptide (H2N—(C/Cy5Mal) WIAQELRRIGDEFN-OH) in the HTRF assay format.
The following assay and stock buffers were prepared for use in the assay: (a) Stock buffer: 10 mM Tris-HCl, pH=7.5+150 mM NaCl, filtered, sterilized, and stored at 4° C.; and (b) 1× assay buffer, where the following ingredients were added fresh to stock buffer: 2 mM dithiothreitol (DTT), 0.0025% Tween-20, 0.1 mg/mL bovine serum albumin (BSA). The 1× Tb-Mcl-1+Cy5 Bim peptide solution was prepared by diluting the protein stock solution using the 1× assay buffer (b) to 25 pM Tb-Mcl-1 and 8 nM Cy5 Bim peptide.
Using the Acoustic ECHO, 100 nL of 100× test compound(s) were dispensed into individual wells of a white 384-well Perkin Elmer Proxiplate, for a final compound concentration of 1× and final DMSO concentration of 1%. Inhibitor control and neutral control (NC, 100 nL of 100% DMSO) were stamped into columns 23 and 24 of assay plate. Into each well of the plate was then dispensed 10 μL of the 1× Tb-Mcl-1+Cy5 Bim peptide solution. The plate was centrifuged with a cover plate at 1000 rpm for 1 minute, then incubated for 60 minutes at room temperature with plates covered.
The TR-FRET signal was read on an BMG PHERAStar FSX MicroPlate Reader at room temperature using the HTRF optic module (HTRF: excitation: 337 nm, light source: laser, emission A: 665 nm, emission B: 620 nm, integration start: 60 μs, integration time: […]).
The BMG PHERAStar FSX MicroPlate Reader was used to measure fluorescence intensity at two emission wavelengths—665 nm and 620 nm—and report relative fluorescence units (RFU) for both emissions, as well as a ratio of the emissions (665 nm/620 nm)*10,000. The RFU values were normalized to percent inhibition as follows:
% inhibition (((NC−IC)−(compound-IC))/(NC−IC))*100
where IC (inhibitor control, low signal)=mean signal of 1× Tb-MCl-1+Cy5 Bim peptide+inhibitor control or 100% inhibition of Mel-1; NC (neutral control, high signal)=mean signal 1× Tb-MCI-1+Cy5 Bim peptide with DMSO only or 0% inhibition
An 11-point dose response curve was generated to determine IC50 values (using GenData) based on the following equation:
Y=Bottom+(Top-Bottom)/(1+10^((log IC50−X)*HillSlope))
where Y=% inhibition in the presence of X inhibitor concentration; Top=100% inhibition derived from the IC (mean signal of Mcl-1+inhibitor control); Bottom=0% inhibition derived from the NC (mean signal of Mcl-1+DMSO); Hillslope=Hill coefficient; and IC50=concentration of compound with 50% inhibition in relation to top/neutral control (NC).
In this assay [L]=8 nM and Kd=10 nM
Representative compounds of the present invention were tested according to the procedure as described above, with results as listed in the Table below (n.d. means not determined).

[1] = test system: MOLP-8 human multiple myeloma cell line; experiment: Caspase-Glo 3/7 apoptosis induction assay in MOLP-8 cells; assay type: cell-based; settings: Homo sapiens, MOLP-8; caspase-3/7 activation, 2 hours incubation at 37° C.; averaged over all runs on all batches; read-out: MOLP8 AC50
From the text: MCL-1 is a regulator of apoptosis and is highly over-expressed in tumor cells that escape cell death. The assay evaluates the cellular potency of small-molecule compounds targeting regulators of the apoptosis pathway, primarily MCL-1, Bfl-1, Bcl-2, and other proteins of the Bcl-2 family. Protein-protein inhibitors disrupting the interaction of anti-apoptotic regulators with BH3-domain proteins initiate apoptosis.
The Caspase-Glo® 3/7 Assay is a luminescent assay that measures caspase-3 and -7 activities in purified enzyme preparations or cultures of adherent or suspension cells. The assay provides a proluminescent caspase-3/7 substrate, which contains the tetrapeptide sequence DEVD. This substrate is cleaved to release aminoluciferin, a substrate of luciferase used in the production of light. Addition of the single Caspase-Glo® 3/7 Reagent in an “add-mix-measure” format results in cell lysis, followed by caspase cleavage of the substrate and generation of a “glow-type” luminescent signal.
This assay uses the MOLP-8 human multiple myeloma cell line, which is sensitive to MCL-1 inhibition.
Cell cultures were maintained between 0.2 and 2.0×10^6 cells/mL. The cells were harvested by collection in 50 mL conical tubes. The cells were then pelleted at 500 g for 5 mins before removing supernatant and resuspension in fresh pre-warmed culture medium. The cells were counted and diluted as needed.
The assay reagent was prepared by transferring the buffer solution to the substrate vial and mixing. The solution may be stored for up to 1 week at 4° C. with negligible loss of signal.
Compounds were delivered in assay-ready plates (Proxiplate) and stored at −20° C.
Assays always include 1 reference compound plate containing reference compounds. The plates were spotted with 40 nL of compounds (0.5% DMSO final in cells; serial dilution; 30 μM highest conc. 1/3 dilution, 10 doses, duplicates). The compounds were used at room temperature and 4 μL of pre-warmed media was added to all wells except column 2 and 23. The negative control was prepared by adding 1% DMSO in media. The positive control was prepared by adding the appropriate positive control compound in final concentration of 60 μM in media. The plate was prepared by adding 4 μL negative control to column 23, 4 μL positive control to column 2, and 4 μL cell suspension to all wells in the plate. The plate with cells was then incubated at 37° C. for 2 hours. The assay signal reagent is the Caspase-Glo solution described above, and 8 μL was added to all wells. The plates were then sealed and measured after 30 minutes.
The activity of a test compound was calculated as percent change in apoptosis induction as follows: • LC=median of the Low Control values • =Central Reference in Screener • =DMSO • =0% • HC=Median of the High Control values • =Scale Reference in Screener • =30 μM of positive control • =100% apoptosis induction
% Effect (AC50)=100−((sample-LC)/(HC-LC))*100
% Control=(sample/HC)*100
% Control min=((sample-LC)/(HC-LC))*100
Table: Measured AC50 for Representative Compounds of Formula (I). Averaged values are reported over all runs on all batches of a particular compound.

Chain of Mcl-1 (Q07820 whole entry): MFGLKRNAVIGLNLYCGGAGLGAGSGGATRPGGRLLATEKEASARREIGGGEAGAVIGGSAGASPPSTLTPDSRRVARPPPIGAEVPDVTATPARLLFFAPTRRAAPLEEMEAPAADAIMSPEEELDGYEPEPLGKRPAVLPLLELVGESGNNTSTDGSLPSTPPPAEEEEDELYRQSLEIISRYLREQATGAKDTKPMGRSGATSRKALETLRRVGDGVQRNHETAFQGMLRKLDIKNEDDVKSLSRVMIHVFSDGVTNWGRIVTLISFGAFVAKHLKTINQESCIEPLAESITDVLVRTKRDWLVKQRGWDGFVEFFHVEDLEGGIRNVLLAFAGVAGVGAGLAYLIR

C[C@@H]1[C@@H](C)C/C=C(\F)C(C(O)COCC2CCOCC2)N2CC[C@H]2CN2C[C@@]3(CCCc4cc(Cl)ccc43)COc3ccc(cc32)C(=O)NS1(=O)=O (single isomer, unassigned) [Compound 5]
Ki (Mcl-1): 0.23 nM | AC50 [1]: 238 nM

C[C@@H]1[C@@H](C)C/C=C(\F)[C@H]([C@@H](C)O)N2CC[C@H]2CN2C[C@@]3(CCCc4cc(Cl)ccc43)COc3ccc(cc32)C(=O)NS1(=O)=O [Compound 1]
Ki (Mcl-1): 0.326 nM | AC50 [1]: 116 nM

C[C@H](O)[C@H]1/C(F)=C/C[C@H](C)[C@@H](C)S(=O)(=O)NC(=O)c2ccc3c(c2)N(C[C@@H]2CCN21)C[C@@]1(CCCc2cc(Cl)ccc21)CO3 [Compound 2]
Ki (Mcl-1): 0.106 nM | AC50 [1]: 122 nM

C[C@@H]1[C@@H](C)C/C=C(\F)[C@H]([C@@H](C)O)N2CCC[C@H]2CN2C[C@@]3(CCCc4cc(Cl)ccc43)COc3ccc(cc32)C(=O)NS1(=O)=O [Compound 3]
Ki (Mcl-1): 1.56 nM | AC50 [1]: 217 nM

C[C@H](O)[C@H]1/C(F)=C/C[C@H](C)[C@@H](C)S(=O)(=O)NC(=O)c2ccc3c(c2)N(C[C@@H]2CCCN21)C[C@@]1(CCCc2cc(Cl)ccc21)CO3 [Compound 4]
Ki (Mcl-1): 0.236 nM | AC50 [1]: 238 nM

C[C@@H]1[C@@H](C)C/C=C(\F)[C@H]([C@@H](O)COCC2CCOCC2)N2CC[C@H]2CN2C[C@@]3(CCCc4cc(Cl)ccc43)COc3ccc(cc32)C(=O)NS1(=O)=O [Compound 6]
Ki (Mcl-1): 0.053 nM | AC50 [1]: 68.5 nM

COC[C@]1([C@@H]2COC(C)(C)O2)/C(F)=C/C[C@H](C)[C@@H](C)S(=O)(=O)NC(=O)c2ccc3c(c2)N(C[C@@H]2CCN21)C[C@@]1(CCCc2cc(Cl)ccc21)CO3 [Compound 7]
Ki (Mcl-1): 0.221 nM | AC50 [1]: 134 nM

CO[C@@H](CO)[C@@]1(CO)/C(F)=C/C[C@H](C)[C@@H](C)S(=O)(=O)NC(=O)c2ccc3c(c2)N(C[C@@H]2CCN21)C[C@@]1(CCCc2cc(Cl)ccc21)CO3 [Compound 8]
Ki (Mcl-1): 0.357 nM | AC50 [1]: 3960 nM

C[C@@H]1[C@@H](C)C/C=C(\F)[C@@]2(COC(C)(C)OC[C@@H]2O)N2CC[C@H]2CN2C[C@@]3(CCCc4cc(Cl)ccc43)COc3ccc(cc32)C(=O)NS1(=O)=O [Compound 9]
Ki (Mcl-1): 0.04 nM | AC50 [1]: 64.8 nM

C[C@@H]1[C@@H](C)C/C=C(\F)[C@](CO)([C@@H]2COC(C)(C)O2)N2CC[C@H]2CN2C[C@@]3(CCCc4cc(Cl)ccc43)COc3ccc(cc32)C(=O)NS1(=O)=O [Compound 10]
AC50 [1]: 553 nM

C[C@@H]1[C@@H](C)C/C=C(\F)[C@@]2(COC(C)(C)OC[C@@H]2O)N2CCC[C@H]2CN2C[C@@]3(CCCc4cc(Cl)ccc43)COc3ccc(cc32)C(=O)NS1(=O)=O [Compound 11]
Ki (Mcl-1): 0.172 nM | AC50 [1]: 96.5 nM

CO[C@H]1COC(C)(C)OC[C@@]12/C(F)=C/C[C@H](C)[C@@H](C)S(=O)(=O)NC(=O)c1ccc3c(c1)N(C[C@@H]1CCCN12)C[C@@]1(CCCc2cc(Cl)ccc21)CO3 [Compound 12]
Ki (Mcl-1): 0.359 nM | AC50 [1]: 885 nM

C[C@@H]1[C@@H](C)C/C=C(\F)C2(COC(C)(C)OC2)N2CC[C@H]2CN2C[C@@]3(CCCc4cc(Cl)ccc43)COc3ccc(cc32)C(=O)NS1(=O)=O [Compound 13]
Ki (Mcl-1): 1.77 nM | AC50 [1]: 1110 nM

C[C@@H]1[C@@H](C)C/C=C(\F)C2(COC(C)(C)OC2)N2CCC[C@H]2CN2C[C@@]3(CCCc4cc(Cl)ccc43)COc3ccc(cc32)C(=O)NS1(=O)=O [Compound 14]
Ki (Mcl-1): 0.241 nM | AC50 [1]: 759 nM

COC[C@H](OC)[C@@]1(COC)/C(F)=C/C[C@H](C)[C@@H](C)S(=O)(=O)NC(=O)c2ccc3c(c2)N(C[C@@H]2CCN21)C[C@@]1(CCCc2cc(Cl)ccc21)CO3 [Compound 15]
AC50 [1]: 503 nM

COC[C@H](O)[C@@]1(COC)/C(F)=C/C[C@H](C)[C@@H](C)S(=O)(=O)NC(=O)c2ccc3c(c2)N(C[C@@H]2CCN21)C[C@@]1(CCCc2cc(Cl)ccc21)CO3 [Compound 16]
Ki (Mcl-1): 0.072 nM | AC50 [1]: 222 nM

C[C@@H]1[C@@H](C)C/C=C(\F)[C@H]([C@@H](C)O)N2CCC[C@H]2CN2C[C@@]3(CCOc4cc(Cl)ccc43)COc3ccc(cc32)C(=O)NS1(=O)=O [Compound 17]
Ki (Mcl-1): 2.41 nM | AC50 [1]: 3350 nM
